Earlier results, collected in patent US11135214B2, “Methods for enhancing the bio availability and exposure of a voltage-gated potassium channel opener” (priority 2018, dated 2021).

Experiments:
[1] = FDA Approved Labeling Text for Potiga; Harris and Murphy 2011; cited from earlier work
[2] = Prescott and Evans 2014; cited from earlier work
[3] = tested on: neural membrane excitability; conditions: Ziemann et al. 2015; Ossemann et al. 2016; cited from earlier work
TEP components = conditions: TMS-EEG, Premoli et al. 2016; cited from earlier work

Structure (SMILES) | food effect on bioavailability and exposure after oral administration [1] | black-box warnings after long term use [2] | motor threshold (at rest and under active muscular contraction) [3] | P180 component (TEP components) | amplitude of the N45 (TEP components)
CCOC(=O)Nc1ccc(NCc2ccc(F)cc2)cc1N [retigabine] | lack of food effect | discoloration of skin, lips, nails and retinal pigmentary changes | increased | – | –
NC(=O)N1c2ccccc2C=Cc2ccccc21 [carbamazepine] | – | – | increased | – | –
Nc1nnc(-c2cccc(Cl)c2Cl)c(N)n1 [lamotrigine] | – | – | increased | suppressed | increased
CC[C@@H](C(N)=O)N1CCCC1=O [levetiracetam] | – | – | – | suppressed | increased
